In the NIST ThermoML archive (doi:10.1016/j.tca.2016.12.008):
Where “and” joins values, the source holds several entries; their conditions need not be identical. Equal entries are not always repeated. ± gives the expanded uncertainty stated by the source.

How the values were obtained:
[1] = Molar enthalpy of transition or fusion; conditions: Crystal; DSC
[2] = for Normal melting temperature: DTA

Molar enthalpy of transition or fusion [1] | mass density ([2]; 293 K, 101.33 kPa, Crystal, X-ray diffraction) | Normal melting temperature ([2]; Crystal) | Glass transition temperature ([2]; Glass, DSC) | Normal melting temperature ([2]; Crystal 1) | Triple point temperature ([2]; Crystal 2, DSC) | Compound
6.81 ± 0.191 kcal/mol | 1173 ± 6 kg/m3 | 156.20 ± 0.9 °C and 155.50 ± 0.5 °C | 25.00 ± 2 °C |  |  | CC(C)(C)C(=O)Oc1ccc2ccccc2c1-c1c(OC(=O)C(C)(C)C)ccc2ccccc12
7.46 ± 0.215 kcal/mol |  | 215.40 ± 0.5 °C |  |  |  | Oc1ccc2ccccc2c1-c1c(O)ccc2ccccc12 [(1,1'-binaphthalene)-2,2'-diol]
 |  |  |  | 123.80 ± 0.5 °C | 389.55 ± 1.3 K | CC(C)(C)C(=O)Oc1ccc2ccccc2c1-c1c(OC(=O)C(C)(C)C)ccc2ccccc12 [(1,1'-binaphthalene)-2,2'-diyl bis(2,2-dimethylpropanoate)]
7.39 ± 0.167 kcal/mol |  | 209.20 ± 0.5 °C and 208.00 ± 0.5 °C |  |  |  | Oc1ccc2ccccc2c1-c1c(O)ccc2ccccc12 [(S)-(1,1'-binaphthalene)-2,2'-diol]
